Test results: patent US12103920B2, “Cereblon binding compounds, compositions thereof, and methods of treatment therewith” (Celgene Corporation, priority 2020, dated 2024)
Counter-ions that a name gives are not always drawn.

Molecular target: T1, AR protein in VCaP cells (Homo sapiens, UniProt P10275)
T1 construct: endogenous in cells; host or cells: VCaP cells
T1 sequence (P10275 1-920): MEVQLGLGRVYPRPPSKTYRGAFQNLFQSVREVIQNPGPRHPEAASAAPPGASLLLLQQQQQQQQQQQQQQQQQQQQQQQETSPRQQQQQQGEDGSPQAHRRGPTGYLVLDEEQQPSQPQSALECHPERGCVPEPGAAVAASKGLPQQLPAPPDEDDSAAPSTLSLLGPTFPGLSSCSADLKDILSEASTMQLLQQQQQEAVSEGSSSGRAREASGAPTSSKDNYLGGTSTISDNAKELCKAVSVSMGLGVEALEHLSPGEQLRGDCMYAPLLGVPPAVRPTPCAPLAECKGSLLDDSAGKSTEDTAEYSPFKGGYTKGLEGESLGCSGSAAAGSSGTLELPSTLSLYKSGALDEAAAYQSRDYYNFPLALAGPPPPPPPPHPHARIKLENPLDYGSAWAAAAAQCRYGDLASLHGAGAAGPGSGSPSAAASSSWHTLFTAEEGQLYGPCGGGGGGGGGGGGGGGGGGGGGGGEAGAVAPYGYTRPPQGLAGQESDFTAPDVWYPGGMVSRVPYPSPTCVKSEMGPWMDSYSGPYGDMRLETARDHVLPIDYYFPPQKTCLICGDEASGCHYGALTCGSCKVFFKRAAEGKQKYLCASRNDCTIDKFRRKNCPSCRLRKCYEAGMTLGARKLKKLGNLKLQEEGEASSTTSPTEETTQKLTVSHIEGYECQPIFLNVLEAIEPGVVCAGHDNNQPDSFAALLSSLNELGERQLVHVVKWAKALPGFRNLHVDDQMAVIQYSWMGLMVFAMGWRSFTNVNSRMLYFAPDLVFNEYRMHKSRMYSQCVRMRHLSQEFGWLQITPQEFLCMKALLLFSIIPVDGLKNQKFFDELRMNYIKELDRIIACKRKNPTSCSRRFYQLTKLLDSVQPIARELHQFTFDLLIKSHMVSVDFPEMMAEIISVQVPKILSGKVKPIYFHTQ
Test: VCAP AR Degradation Assay
Type: cell-based
Details: 24 h, AR ELISA; for DC50: concentration at 50% of DMSO control (50% AR degradation); for Y: lowest measured AR level normalized to DMSO control
Outline: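 VCaP cells in DMEM with 8% FBS were treated 24 h at 37° C with a 10-point 1:3 series (top final 5 μM; 0.1% DMSO control). AR in lysates was measured by sandwich ELISA, normalized to DMSO as percent of control; DC50, EC50 and Ymin came from a four-parameter logistic fit.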

For `C[C@@H]1CN(CCC[C@H]2CC[C@H](N3C(=S)N(c4ccc(C#N)c(C(F)(F)F)c4)C(=O)C3(C)C)CC2)C[C@H](C)N1CC(=O)Nc1cc(NC2CCC(=O)NC2=O)ccc1F` (stereo partly drawn) [Cmpd 39, 2-((2R,6S)-4-(3-((trans)-4-(3-(4-Cyano-3-(trifluoromethyl)phenyl)-5,5-dimethyl-4-oxo-2-thioxoimidazolidin-1-yl)cyclohexyl)propyl)-2,6-dimethylpiperazin-1-yl)-N-(5-((2,6-dioxopiperidin-3-yl)amino)-2-fluorophenyl)acetamide], the DC50 was 10 to 100 nM and the Y was “*** (25%<Y<50%)”.

In the case of `CC1(C)C(=O)N(c2ccc(C#N)c(C(F)(F)F)c2)C(=S)N1[C@H]1CC[C@H](OCCN2CCN(CC(=O)Nc3cccc(NC4CCC(=O)NC4=O)c3)[C@H](C(F)(F)F)C2)CC1` (stereo partly drawn) [Cmpd 40, 2-((S)-4-(2-(((trans)-4-(3-(4-Cyano-3-(trifluoromethyl)phenyl)-5,5-dimethyl-4-oxo-2-thioxoimidazolidin-1-yl)cyclohexyl)oxy)ethyl)-2-(trifluoromethyl)piperazin-1-yl)-N-(3-((2,6-dioxopiperidin-3-yl)amino)phenyl)acetamide], the DC50 was 10 to 100 nM and the Y was “*** (25%<Y<50%)”.

`CC1(C)C(=O)N(c2cnc(C#N)c(C(F)(F)F)c2)C(=S)N1[C@H]1CC[C@H](OCCN2CCN(CC(=O)Nc3cccc(N[C@H]4CCC(=O)NC4=O)c3)[C@@H](C(F)(F)F)C2)CC1` [Cmpd 41, 2-((R)-4-(2-(((trans)-4-(3-(6-Cyano-5-(trifluoromethyl)pyridin-3-yl)-5,5-dimethyl-4-oxo-2-thioxoimidazolidin-1-yl)cyclohexyl)oxy)ethyl)-2-(trifluoromethyl)piperazin-1-yl)-N-(3-(((S)-2,6-dioxopiperidin-3-yl)amino)phenyl)acetamide hydrochloride] was tested, and the DC50 was at most 5 nM and the Y was “* (0<Y≤15%)”.

In the case of `CC1(C)C(=O)N(c2cnc(C#N)c(C(F)(F)F)c2)C(=S)N1[C@H]1CC[C@H](OCCN2CCN(CC(=O)Nc3cccc(N[C@@H]4CCC(=O)NC4=O)c3)[C@@H](C(F)(F)F)C2)CC1` [Cmpd 42, 2-((R)-4-(2-(((trans)-4-(3-(6-Cyano-5-(trifluoromethyl)pyridin-3-yl)-5,5-dimethyl-4-oxo-2-thioxoimidazolidin-1-yl)cyclohexyl)oxy)ethyl)-2-(trifluoromethyl)piperazin-1-yl)-N-(3-(((R)-2,6-dioxopiperidin-3-yl)amino)phenyl)acetamide hydrochloride], the DC50 was at most 5 nM and the Y was “* (0<Y≤15%)”.

`C[C@@H]1C[C@H](OCCO[C@H]2CC[C@H](N3C(=S)N(c4ccc(C#N)c(C(F)(F)F)c4)C(=O)C3(C)C)CC2)C[C@H](C)N1CC(=O)Nc1cccc(NC2CCC(=O)NC2=O)c1` (stereo partly drawn) [Cmpd 43, 2-((2R,4r,6S)-4-(2-(((trans)-4-(3-(4-Cyano-3-(trifluoromethyl)phenyl)-5,5-dimethyl-4-oxo-2-thioxoimidazolidin-1-yl)cyclohexyl)oxy)ethoxy)-2,6-dimethylpiperidin-1-yl)-N-(3-((2,6-dioxopiperidin-3-yl)amino)phenyl)acetamide] was tested, and the DC50 was 5 to 10 nM and the Y was “*** (25%<Y<50%)”.

`CC1(C)C(=O)N(c2ccc(C#N)c(C(F)(F)F)c2)C(=S)N1[C@H]1CC[C@H](OCCC2CCN(CC(=O)Nc3cccc(NC4CCC(=O)NC4=O)c3)CC2(F)F)CC1` (stereo partly drawn) [Cmpd 44, 2-(4-(2-(((trans)-4-(3-(4-Cyano-3-(trifluoromethyl)phenyl)-5,5-dimethyl-4-oxo-2-thioxoimidazolidin-1-yl)cyclohexyl)oxy)ethyl)-3,3-difluoropiperidin-1-yl)-N-(3-((2,6-dioxopiperidin-3-yl)amino)phenyl)acetamide] was tested, and the DC50 was 5 to 10 nM and the Y was “* (0<Y≤15%)”.

For `C[C@@H]1C[C@H](OCCO[C@H]2CC[C@H](N3C(=S)N(c4cnc(C#N)c(C(F)(F)F)c4)C(=O)C3(C)C)CC2)C[C@H](C)N1CC(=O)Nc1cccc(NC2CCC(=O)NC2=O)c1` (stereo partly drawn) [Cmpd 45, 2-((2R,4r,6S)-4-(2-(((trans)-4-(3-(6-Cyano-5-(trifluoromethyl)pyridin-3-yl)-5,5-dimethyl-4-oxo-2-thioxoimidazolidin-1-yl)cyclohexyl)oxy)ethoxy)-2,6-dimethylpiperidin-1-yl)-N-(3-((2,6-dioxopiperidin-3-yl)amino)phenyl)acetamide], the DC50 was at most 5 nM and the Y was “** (15%<Y≤20%)”.

For `CC1(C)C(=O)N(c2cnc(C#N)c(C(F)(F)F)c2)C(=S)N1[C@H]1CC[C@H](OCCC2CCN(CC(=O)Nc3cccc(NC4CCC(=O)NC4=O)c3)CC2(F)F)CC1` (stereo partly drawn) [Cmpd 46, 2-(4-(2-(((trans)-4-(3-(6-Cyano-5-(trifluoromethyl)pyridin-3-yl)-5,5-dimethyl-4-oxo-2-thioxoimidazolidin-1-yl)cyclohexyl)oxy)ethyl)-3,3-difluoropiperidin-1-yl)-N-(3-((2,6-dioxopiperidin-3-yl)amino)phenyl)acetamide hydrochloride], the DC50 was at most 5 nM and the Y was “* (0<Y≤15%)”.

In the case of `C[C@@H]1CN(CCO[C@H]2CC[C@H](N3C(=S)N(c4cnc(C#N)c(C(F)(F)F)c4)C(=O)C3(C)C)CC2)C[C@H](C)N1CC(=O)Nc1cccc(N[C@H]2CCC(=O)NC2=O)c1` [Cmpd 47, 2-((2R,6S)-4-(2-(((trans)-4-(3-(6-Cyano-5-(trifluoromethyl)pyridin-3-yl)-5,5-dimethyl-4-oxo-2-thioxoimidazolidin-1-yl)cyclohexyl)oxy)ethyl)-2,6-dimethylpiperazin-1-yl)-N-(3-(((S)-2,6-dioxopiperidin-3-yl)amino)phenyl)acetamide], the DC50 was under 1000 nM and the Y was “* (0<Y≤15%)”.

In the case of `C[C@@H]1CN(CCO[C@H]2CC[C@H](N3C(=S)N(c4cnc(C#N)c(C(F)(F)F)c4)C(=O)C3(C)C)CC2)C[C@H](C)N1CC(=O)Nc1cccc(N[C@@H]2CCC(=O)NC2=O)c1` [Cmpd 48, 2-((2R,6S)-4-(2-(((trans)-4-(3-(6-Cyano-5-(trifluoromethyl)pyridin-3-yl)-5,5-dimethyl-4-oxo-2-thioxoimidazolidin-1-yl)cyclohexyl)oxy)ethyl)-2,6-dimethylpiperazin-1-yl)-N-(3-(((R)-2,6-dioxopiperidin-3-yl)amino)phenyl)acetamide], the DC50 was under 1000 nM and the Y was “* (0<Y≤15%)”.
